Patent publication US8097733B2, “Pyrazole derivatives as 5-LO-inhibitors” (Pfizer Inc., priority 2007, dated 2012)

Tests used:
recombinant human 5-LOX = biological target: T1, recombinant human 5-LOX (Homo sapiens, UniProt P09917); assay: Fluorescence Intensity 5-LOX Enzyme Assay; type: biochemical; conditions: crude lysate of recombinant human 5-LOX; highest inhibitor concentration tested typically 25 μM
T1 sequence (P09917 1-674): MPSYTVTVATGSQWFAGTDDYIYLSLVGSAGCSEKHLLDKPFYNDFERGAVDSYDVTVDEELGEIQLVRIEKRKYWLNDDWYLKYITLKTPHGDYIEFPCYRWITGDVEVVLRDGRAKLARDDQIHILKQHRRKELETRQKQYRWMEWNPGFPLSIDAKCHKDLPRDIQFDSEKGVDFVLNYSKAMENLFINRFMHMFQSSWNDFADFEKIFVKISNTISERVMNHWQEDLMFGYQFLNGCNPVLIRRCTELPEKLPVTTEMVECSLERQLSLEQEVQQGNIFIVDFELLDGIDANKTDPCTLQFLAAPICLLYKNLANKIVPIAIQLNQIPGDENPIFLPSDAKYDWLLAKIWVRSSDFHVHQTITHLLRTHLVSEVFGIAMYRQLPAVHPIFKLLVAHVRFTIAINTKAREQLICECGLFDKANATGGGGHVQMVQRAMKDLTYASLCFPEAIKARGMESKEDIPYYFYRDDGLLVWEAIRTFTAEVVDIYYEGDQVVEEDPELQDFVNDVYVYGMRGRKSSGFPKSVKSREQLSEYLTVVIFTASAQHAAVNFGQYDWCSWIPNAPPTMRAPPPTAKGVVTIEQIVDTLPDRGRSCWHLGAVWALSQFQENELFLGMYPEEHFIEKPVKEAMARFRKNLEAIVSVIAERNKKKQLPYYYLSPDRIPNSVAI
Method in brief: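 Crude lysate enzyme with H2DCFDA 10 μM (5 min dye pre-incubation), inhibitor pre-incubated 10 min; reaction started with 3 μM arachidonic acid plus 10 μM ATP in Tris pH 7.5, CaCl2, EDTA, 20 min at room temperature, acetonitrile stop. Fluorescein fluorescence; 7-point 4-parameter IC50, top 25 μM, 2.5% DMSO.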

[1] = test system: eicosanoid production in the rat air pouch; assay: Carrageenan-induced eicosanoid production in the rat air pouch; type: in vivo; conditions: po, male Lewis rats, 3 mpk by gavage 1 hour prior to carrageenan
Procedure: Carrageenan-Induced Eicosanoid Production in the Rat Air Pouch:
Male Lewis rats (175-200 g), Charles River Laboratories, Wilmington, Mass.) were used in the study. Air pouches were produced by subcutaneous injection of 20 ml of sterile air into the intrascapular area of the back. Pouches were allowed to develop for 1 day. Animals (6 per group) were fasted with free access to water for 16 to 24 hours prior to drug administration. Drugs or vehicle were administered by gavage 1 hour prior to injection of 2 ml of a 1% suspension of carrageenan (FMC BioPolymer, Philadelphia, Pa., Cat. # GP209-NF) dissolved in saline into the pouch. At 3 hours post-carrageenan injection, 1 ml of 50 μg/ml calcium ionophore in saline (A23187, Sigma Chemical Co, St. Louis, M, Cat. #C-7522) was injected into the pouch and the pouch fluid collected 10 minutes later by lavage. The fluid was centrifuged at 3500 rpm for 10 minutes at 4° C., and the supernatants were collected for analysis. Leukotriene and prostaglandin levels were quantitated by ELISA according to the manufacturer's directions (Cayman Chemical Company, Ann Arbor, Mi).

[2] = test system: human whole blood (leukotriene and prostaglandin levels); assay: Eicosanoid production from human whole blood; type: cell-based; conditions: human whole blood stimulated with calcium ionophore A23187 and arachidonic acid; ELISA
Method in brief: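 Pooled heparinized whole blood from healthy or asthmatic donors was preincubated with compound for 10 min at room temperature, with 2.5% DMSO final. It was stimulated with calcium ionophore A23187 plus arachidonic acid (30 μM) in 60% ethanol for 15 min at 37 °C. Plasma leukotrienes and prostaglandins were measured by ELISA.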

SMILES	IC50 (recombinant human 5-LOX) [nM]	inhibition at 3 mg/kg [1] [%]	IC50 [2] [nM]
Cn1nccc1-c1ccc(Sc2cccc(C3(C#N)CCOCC3)c2F)cc1 [Example 48, 4-(2-fluoro-3-{[4-(1-methyl-1H-pyrazol-6-yl)phenyl]thio}phenyl)tetrahydro-2H-pyran-4-carbonitrile]	387	38	124
Cn1nccc1Oc1ccc(Sc2cccc(C3(C(N)=O)CCOCC3)c2)cc1C#N [Example 51, 4-[3-({3-cyano-4-[(1-methyl-1H-pyrazol-5-yl)oxy]phenyl}thio)phenyl]tetrahydro-2H-pyran-4-carboxamide]	554	77	203
CNC(=O)C1(c2cc(F)cc(Sc3ccc(-c4ccnn4C)cc3)c2F)CCOCC1 [Example 19, 4-(2,5-difluoro-3-{[4-(1-methyl-1H-pyrazol-5-yl)phenyl]thio}phenyl)-N-methyltetrahydro-2H-pyran-4-carboxamide]	114	95.3	996
C[C@H]1C[C@@](C(N)=O)(c2cccc(Sc3ccc(-c4ccnn4C)cc3)c2)CCO1 [Example 22, (2S,4R)-2-methyl-4-(3-(4-(1-methyl-1H-pyrazol-5-yl)phenylthio)phenyl)-tetrahydro-2H-pyran-4-carboxamide]	16.4	99.5	185
Cn1nccc1-c1ccc(Sc2cccc(C3(C(N)=O)CCOCC3)c2)cc1Cl [Example 1, 4-(3-{[3-chloro-4-(1-methyl-1H-pyrazol-5-yl)phenyl]thio}phenyl)tetrahydro-2H-pyran-4-carboxamide]	89.7	50.5	76.5
Cn1nccc1-c1ccc(Sc2cccc(C3(C(N)=O)CCOCC3)c2)cc1C#N [Example 2, 4-(3-{[3-Cyano-4-(1-methyl-1H-pyrazol-5-yl)phenyl]thio}phenyl)tetrahydro-2H-pyran-4-carboxamide]	660	0	196
C[C@H]1C[C@@](C#N)(c2cccc(Sc3ccc(-c4ccnn4C)c(F)c3)c2)CCO1 [30(2), (2S,4R)-4-(3-(3-fluoro-4-(1-methyl-1H-pyrazol-5-yl)phenylthio)phenyl)-2-methyl-tetrahydro-2H-pyran-4-carbonitrile]	113	95	55.7
Cn1nccc1-c1ccc(Sc2cc(C3(C(N)=O)CCOCC3)ccc2F)cc1 [Example 21, 4-(4-fluoro-3-(4-(1-methyl-1H-pyrazol-5-yl)phenylthio)phenyl)-tetrahydro-2H-pyran-4-carboxamide]	567	96	859
C[C@H]1C[C@@](C#N)(c2cccc(Sc3ccc(-c4ccnn4C)c(F)c3)c2F)CCO1 [31(1), (2S,4R)-4-(2-fluoro-3-(3-fluoro-4-(1-methyl-1H-pyrazol-5-yl)phenylthio)phenyl)-2-methyl-tetrahydro-2H-pyran-4-carbonitrile]	21.5	96	59.8
C[C@H]1C[C@@](C#N)(c2ccc(F)c(Sc3ccc(-c4ccnn4C)cc3)c2)CCO1 [Example 24, (2S,4R)-4-(4-fluoro-4-(4-(1-methyl-1H-pyrazol-5-yl)phenylthio)phenyl)-2-methyl-tetrahydro-2H-pyran-4-carbonitrile]	692	32	150
C[C@H]1C[C@@](C#N)(c2cc(F)cc(Sc3ccc(-c4ccnn4C)cc3)c2)CCO1 [27(2), (2S,4R)-4-(3-fluoro-5-(4-(1-methyl-1H-pyrazol-5-yl)phenylthio)phenyl)-2-methyl-tetrahydro-2H-pyran-4-carbonitrile]	331	100	123
Cn1nccc1-c1ncc(Sc2cccc(C3(C(N)=O)CCOCC3)c2)cc1Cl [Example 11, 4-(3-{[5-chloro-6-(1-methyl-1H-pyrazol-5-yl)pyridin-3-yl]thio}phenyl)tetrahydro-2H-pyran-4-carboxamide]	386	69	260
CNC(=O)C1(c2cccc(Sc3ccc(-c4ccnn4C)cc3)c2Cl)CCOCC1 [Example 55, 4-(2-chloro-3-{[4-(1-methyl-1H-pyrazol-5-yl)phenyl]thio}phenyl)-N-methyltetrahydro-2H-pyran-4-carboxamide]	357	64	1240
C[C@H]1C[C@@](C(N)=O)(c2cccc(Sc3ccc(-c4ccnn4C)cc3)c2F)CCO1 [Example 29, (2S,4R)-4-(2-fluoro-3-(4-(1-methyl-1H-pyrazol-5-yl)phenylthio)phenyl)-2-methyl-tetrahydro-2H-pyran-4-carboxamide]	14.9	100	265
C[C@H]1C[C@@](C(N)=O)(c2ccc(F)c(Sc3ccc(-c4ccnn4C)cc3)c2F)CCO1 [Example 28, (2S,4R)-4-(2,4-difluoro-3-(4-(1-methyl-1H-pyrazol-5-yl)phenylthio)phenyl)-2-methyl-tetrahydro-2H-pyran-4-carboxamide]	21	100	227
C[C@H]1C[C@@](C(N)=O)(c2cccc(Sc3ccc(C(=O)c4ccnn4C)cc3)c2F)CCO1 [Example 40]	21.9	96	407
Cn1nccc1-c1ccc(Sc2cc(F)cc(C3(C(N)=O)CCOCC3)c2)cc1 [Example 15, 4-(3-fluoro-5-{[4-(1-methyl-1H-pyrazol-5-yl)phenyl]thio}phenyl)tetrahydro-2H-pyran-4-carboxamide]	264	68.5	365
Cn1nccc1-c1ccc(Sc2cccc(C3(C#N)CCOCC3)c2)cc1F [Example 46, 4-(3-{[3-fluoro-4-(1-methyl-1H-pyrazol-5-yl)phenyl]thio}phenyl)tetrahydro-2H-pyran-4-carbonitrile]	4130	0	539
C[C@H]1C[C@@](C(N)=O)(c2cccc(Sc3cnc(Oc4ccnn4C)c(Cl)c3)c2F)CCO1 [Example 52, (2S,4R)-4-(3-(5-chloro-6-(1-methyl-1H-pyrazol-5-yloxy)pyridin-3-ylthio)-2-fluorophenyl)-2-methyl-tetrahydro-2H-pyran-4-carboxamide]	20.7	100	272
Cn1nccc1-c1ccc(Sc2cccc(C3(C(N)=O)CCOCC3)c2)c(Cl)c1 [Example 13, 4-(3-{[2-chloro-4-(1-methyl-1H-pyrazol-5-yl)phenyl]thio}phenyl)tetrahydro-2H-pyran-4-carboxamide]	54	1	119
C[C@H]1C[C@@](C(N)=O)(c2cc(F)cc(Sc3ccc(-c4ccnn4C)cc3)c2)CCO1 [Example 27, (2S,4R)-4-(3-fluoro-5-(4-(1-methyl-1H-pyrazol-5-yl)phenylthio)phenyl)-2-methyl-tetrahydro-2H-pyran-4-carboxamide]	19.8	100	138
CNC(=O)C1(c2cccc(Sc3ccc(-c4ccnn4C)cc3Cl)c2)CCOCC1 [Example 16, 4-(3-{[2-chloro-4-(1-methyl-1H-pyrazol-6-yl)phenyl]thio}phenyl)-N-methyltetrahydro-2H-pyran-4-carboxamide]	67.9	0	331
